# Experimental data taken from publication PMC5974403, “The novel histone de acetylase 6 inhibitor, MPT0G211, ameliorates tau phosphorylation and cognitive deficits in an Alzheimer’s disease model” (Cell Death & Disease, 2018).
# “Also recorded” adds a separate entry of the source.
# Assays:
# Neuro-2a cells = experiment: Western blot of tau phosphorylation and kinases in Neuro-2a cells transfected with pCAX APP 695 and pRK5-EGFP-Tau P301L; type: cell-based, mouse; settings: 0.1 μM, 24 h
# Procedure: Images represented magnification at ×100. b Cells were transfected with pCAX APP 695 for 24 h, harvested, and cell lysates were subjected to Western blotting. c, d SH-SY5Y and Neuro-2a cells were transfected with pCAX APP 695 and/or pRK5-EGFP-Tau P301L for 24 h. Cell lysates were prepared for western blot analysis of the indicated proteins. e, f Cells were transfected with pCAX APP 695 and pRK5-EGFP-Tau P301L for 24 h and were then incubated with or without MPT0G211 or ACY-1215 (0.1 μM) for another 24 h. Cell lysates were subjected to western blot analysis using the indicated antibodies. Results are presented as the mean ± SEM from three independent experiments. **p < 0.01, ***p < 0.001 compared with the control group; ^#p < 0.05, ^##p < 0.01 compared with the indicated groups
# Cell lysates were prepared for western blot analysis of the indicated proteins. Results are presented as the mean ± SEM. *p < 0.05, **p < 0.01, and ***p < 0.001 compared with the control group; ^#p < 0.05, ^##p < 0.01, ^###p < 0.001 compared with the indicated groups
# Cells were seeded 1 day before transfection. The plasmids pCAX FLAG APP and pRK5-EGFP-Tau P301L (1 μg each) and 1 μL of TurboFect transfection reagent were mixed for 20 min at room temperature, added to the cells, and the suspensions were incubated for 24 h at 37 °C in a humidified atmosphere containing 5% CO2.
# Cells (1 × 10^6) were incubated for 10 min at 4 °C in lysis buffer (20 mM HEPES, pH 7.4, 2 mM EGTA, 50 mM β-glycerophosphate, 0.1% Triton X-100, 10% glycerol, 1 mM dithiothreitol, 1 μg/mL leupeptin, 5 μg/mL aprotinin, 1 mM phenylmethylsulfonyl fluoride, and 1 mM sodium orthovanadate), scraped from the plate, incubated on ice for 10 min, and centrifuged at 17,000 × g for 30 min at 4 °C. Protein samples (30 μg) were electrophoresed through sodium dodecyl sulfate-polyacrylamide gels (SDS-PAGE) and transferred onto a nitrocellulose membrane, which was then blocked by incubation for 30 min at room temperature with 5% fat-free milk in PBS. Immunoblotting was performed by overnight incubation at 4 °C with primary antibodies in PBS, followed by incubation for 1 h at room temperature with HRP-conjugated secondary antibodies. Bound antibodies were measured using ECL reagent (T-Pro Biotechnology, New Taipei City, Taiwan), and the membrane was placed on a photographic film. Cell lysates (30 μg) were incubated with antibodies (1 μg each) and protein A/G agarose beads overnight at 4 °C. The precipitated beads were washed three times with 1 mL of ice-cold cell lysis buffer, and bound immune complexes were separated using 8% SDS-PAGE, followed by immunoblotting using the indicated primary antibody.
# SH-SY5Y cells = experiment: Subcellular fractionation of tau pools (tau aggregation) in transfected SH-SY5Y cells; type: cell-based, human; settings: SH-SY5Y transfected hAPP 695 + hTau P301L, 0.1 μM, 24 h
# Procedure: The fractionation scheme used to separate different cellular pools of tau, and the western blot analysis of the effects of the compounds on tau pools generated using the fractionation scheme are presented. b, d SH-SY5Y cells were transfected for 24 h with pCAX APP 695 and pRK5-EGFP-Tau P301L, incubated with or without MPT0G211 or ACY-1215 (0.1 μM) for another 24 h, and then the cells were fixed and stained by propidium iodide (b) or annexin V/PI double staining (d) and analyzed by flow cytometry. c, e Percentages of the subG1 phase (c) or annexin V-positive cells (e) in response to drug treatment as explained in (b). Results are presented as the mean ± SEM. *p < 0.05 and **p < 0.01 compared with the control group; ^#p < 0.05 and ^##p < 0.01 compared with the indicated groups TEXT PRINTED IN THE PICTURE: (B) MPT0G211: hAPP + hTauP301L: SubG1 10.91% | (B) ACY-1215: hAPP + hTauP301L: SubG1 15.40% | (D) MPT0G211: hAPP + hTauP301L: 9.56%; hAPP + hTauP301L: 11.26% | (D) ACY-1215: hAPP + hTauP301L: 9.28%; hAPP + hTauP301L: 11.25%
# This assay followed a published method. Briefly, cells (1 × 10^7) were treated with drugs for 24 h and scraped off into breaking buffer (0.25 M sucrose, 10 mM HEPES, pH 7.2, 1 mM MgAc2, and protease inhibitors). […] Samples containing equal amounts of protein were analyzed using SDS-PAGE.
# 3×Tg-AD mice [1] = experiment: Morris water maze in 3×Tg-AD mice; type: in vivo, mouse; settings: 50 mg/kg oral daily for 3 months
# Procedure: (§1) Red arrowheads indicate phosphorylated-tau proteins. Scale bar = 25 μm. Data represent the mean ± SEM. *p < 0.05, **p < 0.01, and ***p < 0.001 compared with the basal or control group; ^#p < 0.05, ^##p < 0.01, and ^###p < 0.001 compared with the vehicle-treated group
# Six-month-old female B6;129-Psen1^tm1Mpm Tg(APPSwe,tauP301L)1Lfa/Mmjax (3xTg-AD) mice and control B6129SF2/J mice were obtained from the Jackson Laboratory (Bar Harbor, ME, USA), orally administered MPT0G211 (50 mg/kg) or memantine (30 mg/kg, dissolved in water) once daily for 3 months, and then subjected to Morris water maze. The assay that using 3xTg-AD mice was entrusted to carry out by Development Center for Biotechnology (New Taipei City, Taiwan).
# The water maze was constructed as a white circular pool filled with water, and the water temperature was maintained at 23–27 °C. A white platform was established and submerged 5 cm below the surface of the water and styrofoam beads were added to make the platform invisible. Animals were trained by permitting them to stay for 10 s upon reaching the platform. […] Training was performed twice daily and 4 days during 1 week. Test trials were repeated twice with a 20 min interval for each animal. Scopolamine (1 mg/kg) was injected intraperitoneally 90 min before the test trial to induce AD-like features, except for the control group.
# 3×Tg-AD mice [2] = experiment: Immunohistochemistry and western blot of brain (hippocampal CA1) of 3×Tg-AD mice; type: in vivo, mouse; settings: 3×Tg-AD mice, 50, 100 mg/kg oral, 3 months
# From the text: as §1
smiles,measurement,setting,value
"O=C(NO)c1ccc(CNc2cccc3cccnc23)cc1 [MPT0G211, N-hydroxy-4-((quinolin-8-ylamino)methyl)benzamide]",phosphorylation of tau Ser396,Neuro-2a cells; Neuro-2a transfected hAPP 695 + hTau P301L,significantly inhibited; also recorded: significantly attenuated
same,"CDK5, p25, or p35 expression",Neuro-2a cells; Neuro-2a transfected,no marked changes
same,phospho-GSK3β on Ser9,Neuro-2a cells; Neuro-2a transfected,significant phospho-GSK3β increases
same,phospho-GSK3β on Ser216,Neuro-2a cells; Neuro-2a transfected,a decrease
same,phosphorylation of tau Ser404,Neuro-2a cells; Neuro-2a transfected,significantly attenuated
same,levels of aggregated tau,SH-SY5Y cells,significantly reduced
same,memory impairment (Morris water maze escape latency),3×Tg-AD mice [1],significantly ameliorated
same,acetyl-α-tubulin accumulation in brain,3×Tg-AD mice [2],increased
same,p-Tau (S396) expression in brain,3×Tg-AD mice [2]; hippocampal CA1,significantly downregulated
same,p-Tau (S404) expression in brain,3×Tg-AD mice [2]; hippocampal CA1,significantly downregulated
